For test [1], the target named is T1, soluble guanylate cyclase (sGC) (Homo sapiens, UniProt Q02108+Q02153).
T1 construct: endogenously expressing soluble guanylate cyclase (sGC); endogenous in cells; host or cells: HEK293
T1 sequence (Q02153 1-619): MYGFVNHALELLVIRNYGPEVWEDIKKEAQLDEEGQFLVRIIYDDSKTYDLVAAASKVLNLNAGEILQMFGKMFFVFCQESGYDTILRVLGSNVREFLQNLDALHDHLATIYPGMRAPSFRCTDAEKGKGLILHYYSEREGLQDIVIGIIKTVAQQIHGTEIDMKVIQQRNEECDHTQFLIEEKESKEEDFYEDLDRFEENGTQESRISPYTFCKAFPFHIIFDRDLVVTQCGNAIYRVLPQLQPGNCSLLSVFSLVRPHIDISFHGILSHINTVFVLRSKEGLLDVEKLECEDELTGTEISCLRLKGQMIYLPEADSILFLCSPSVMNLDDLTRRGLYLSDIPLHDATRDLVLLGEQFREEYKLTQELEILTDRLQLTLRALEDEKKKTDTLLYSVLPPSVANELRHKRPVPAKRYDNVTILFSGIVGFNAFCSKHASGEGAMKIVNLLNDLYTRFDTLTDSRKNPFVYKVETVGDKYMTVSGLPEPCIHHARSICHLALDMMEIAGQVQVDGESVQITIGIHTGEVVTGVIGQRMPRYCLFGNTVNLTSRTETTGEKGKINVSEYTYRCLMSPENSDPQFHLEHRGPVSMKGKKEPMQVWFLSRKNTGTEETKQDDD
T1 sequence (Q02108 1-690): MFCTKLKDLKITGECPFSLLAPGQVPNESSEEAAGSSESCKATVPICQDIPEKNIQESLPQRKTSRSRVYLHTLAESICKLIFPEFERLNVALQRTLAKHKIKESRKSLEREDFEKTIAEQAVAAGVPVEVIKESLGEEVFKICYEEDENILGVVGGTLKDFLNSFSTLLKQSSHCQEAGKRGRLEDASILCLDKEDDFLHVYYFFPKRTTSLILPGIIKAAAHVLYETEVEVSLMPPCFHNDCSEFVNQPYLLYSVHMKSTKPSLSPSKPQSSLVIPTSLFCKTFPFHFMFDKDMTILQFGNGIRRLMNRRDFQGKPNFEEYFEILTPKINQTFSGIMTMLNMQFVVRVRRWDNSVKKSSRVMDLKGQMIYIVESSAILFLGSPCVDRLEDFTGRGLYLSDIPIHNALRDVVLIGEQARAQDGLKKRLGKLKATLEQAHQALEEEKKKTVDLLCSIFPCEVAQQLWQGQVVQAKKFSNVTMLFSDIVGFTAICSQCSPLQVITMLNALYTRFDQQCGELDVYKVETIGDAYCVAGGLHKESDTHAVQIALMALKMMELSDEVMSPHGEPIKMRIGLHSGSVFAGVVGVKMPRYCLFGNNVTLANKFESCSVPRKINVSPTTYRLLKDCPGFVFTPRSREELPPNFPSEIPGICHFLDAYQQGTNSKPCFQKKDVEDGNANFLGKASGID
As to the kind of experiment: sGC-HEK-cGMP assay. The test is classed as cell-based. Particulars: HEK293 cells, 10 min incubation, intracellular cGMP by LC/MS; for Increase in cGMP Concentration Tested at 10 μM in HEK Assay: test compound 10 μM; for Increase in cGMP Concentration Tested at 30 μM in HEK Assay: test compound 30 μM. Here is the method: Human embryonic kidney cells (HEK293), endogenously expressing soluble guanylate cyclase (sGC), were used to evaluate the activity of test compounds. Compounds stimulating the sGC receptor should cause an increase in the intracellular concentration of cGMP. […] Cells were then incubated for 15 minutes at 37° C. with 0.5 mM 3-isobutyl-1-methylxanthine (2004). Test article was then added to the assay mixture (2 μL) and incubated at 37° C. for 10 minutes. After the 10 minute incubation, the assay mixture was aspirated and 0.1M HCl (2004) was added to the cells. The plate was incubated at 4° C. for 30 minutes in the 0.1M HCl to stop the reaction and lyse the cells. The plates were then centrifuged at 1,200 g for 5 minutes at room temperature. Supernatants were collected and transferred to a new flat bottom 96 well plate for analysis. Vehicle controls were carried out using DMSO (1%). A known sGC stimulator, BAY 41-2272, was used as the positive control.
Samples were diluted with an equal volume of 1 M Ammonium Acetate (pH 7) to neutralize samples for better chromatography. A 2×cGMP standard curve was prepared in 0.1 M HCl and then diluted with an equal volume of 1 M Ammonium Acetate, with the following final concentrations in nM: 1024, 512, 256, 128, 64, 32, 16, 8, 4, 2, 1.
cGMP concentrations were determined from each sample using the LC/MS conditions (Table 2 below) and calculated standard curve. EC50 values were calculated from concentration-response curves generated with GraphPad Prism Software.

For a further test, the system named is thoracic aortic rings. As to the kind of experiment: Thoracic aortic rings assay. Particulars: relaxation of male Sprague-Dawley rat aortic rings contracted with 100 ng/mL phenylephrine; read-out: EC50, thoracic aortic ring assay activity. On the procedure:
Thoracic aortic rings were dissected from anesthetized (isoflurane) male Sprague-Dawley rats weighing 275-299 g. Tissues were immediately transferred to ice-cold Krebs-Henseleit solution, which had been aerated with 95% O2 and 5% CO2 for 30 minutes. Following removal of connective tissue, aortic sections were cut into 4 rings (˜2 mm each) and suspended on 2 L-shaped hooks, with one hook fixed at the bottom of the tissue bath (Schuler Organ Bath, Harvard Apparatus) and the other connected to a force transducer (F30 Force Transducer, Harvard Apparatus). Baths contained Krebs Henseleit solution (10 mL) heated to 37° C. and aerated with 95% O2 and 5% CO2. Rings were brought to an initial tension of 0.3-0.5 g and gradually raised to a resting tension of 1.0 g over 60 minutes. Rings were rinsed with Krebs Henseleit solution (heated to 37° C. and aerated with 95% O2 and 5% CO2) at 15 minute intervals until a stable baseline was obtained. Rings were considered to be stable after a resting tension of 1.0 g was maintained (for approximately 10 minutes) without need for adjustment. Rings were then contracted with 100 ng/mL phenylephrine by adding 100 uL of a […] phenylephrine stock solution. Tissues achieving a stable contraction were then treated in a cumulative, dose dependent manner with test compounds prepared in dimethylsulfoxide (DMSO). In some cases, tissues were rinsed three times over a 5 minute period with Krebs-Heinseleit's solution (heated to 37° C. and aerated with 95% O2 and 5% CO2), allowed to stabilize at baseline, and then used for characterization of other test articles or DMSO effects. All data were collected using the HSE-ACAD software provided by Harvard Apparatus. Percent relaxation effects were calculated in Microsoft Excel using the recorded tension value of 100 ng/mL phenylephrine treatment as 0% inhibition and treatment with 100 μM 3-isobutyl-1-methylxanthine as 100% inhibition. EC50 values were calculated from concentration-response curves generated with GraphPad Prism Software.

The term EC50 denotes the concentration that produces a half-maximal response.

In the case of `Nc1ccnc(-c2nn(Cc3ccccc3F)c3c2CCC3)n1` [Compound I-3], in test [1], the “Increase in cGMP Concentration Tested at 10 μM in HEK Assay” value (shortened to “Increase … at 10 μM in HEK Assay”) was “D (D represents an increase ranging from 20 fold to less than 50 fold)” and the “Increase in cGMP Concentration Tested at 30 μM in HEK Assay” value (“Increase … at 30 μM in HEK Assay” below) is recorded as “E (E represents an increase ranging from 50 fold to less than 100 fold)”. The concentration giving a half-maximal response (EC50) in the test on thoracic aortic rings was found to be 1200 nM.
In the same order, the values of `COC(=O)N(C)c1c(N)nc(-c2nn(Cc3ccccc3F)c3c2CCC3)nc1N` [Compound I-37] are “C (C represents an increase ranging from 10 fold to less than 20 fold)”, “B (B represents an increase ranging from 5 fold to less than 10 fold)” and 1200 nM.
The corresponding values for `Nc1ccnc(-c2nn(Cc3ccccc3F)c3c2CCCC3)n1` [Compound I-22] are “D (D represents an increase ranging from 20 fold to less than 50 fold)”, “E (E represents an increase ranging from 50 fold to less than 100 fold)” and 2000 nM.
On to `Nc1nc(-c2nn(Cc3ccccc3F)c3ncccc23)ncc1C1CC1` [Reference Cpd., BAY 41-2272, reference compound], for which, in the test on thoracic aortic rings, the EC50 lay within 340 to 950 nM.
Consider `Fc1ccccc1Cn1nc(-c2ncccn2)c2c1CCCC2` [Compound I-1], for which, in test [1], the “Increase … at 10 μM in HEK Assay” value was “D (D represents an increase ranging from 20 fold to less than 50 fold)” and the “Increase … at 30 μM in HEK Assay” value is “D (D represents an increase ranging from 20 fold to less than 50 fold)”. Also, the 50% effective concentration (EC50) in the test with thoracic aortic rings came to 1300 nM.
For `Nc1nc(-c2nn(Cc3ccccc3F)c3c2CCCC3)nc(N)c1N` [Compound I-12], in test [1], the “Increase … at 10 μM in HEK Assay” value is reported as “A (A represents no increase or an increase ranging from more than 0 fold to less than 5 fold)” and the “Increase … at 30 μM in HEK Assay” value is on record as “A (A represents no increase or an increase ranging from more than 0 fold to less than 5 fold)”.
With `COc1ccccc1C(=O)N1CCc2c(c(-c3ncccn3)nn2Cc2ccccc2F)C1` [Compound I-57], in test [1], the “Increase … at 10 μM in HEK Assay” value was “B (B represents an increase ranging from 5 fold to less than 10 fold)” and the “Increase … at 30 μM in HEK Assay” value is “C (C represents an increase ranging from 10 fold to less than 20 fold)”.
The corresponding values for `Nc1nc(-c2nn(Cc3ccccc3F)c3c2CCCC3)nc(N)c1N1CCOC1=O` [Compound I-26] are “A (A represents no increase or an increase ranging from more than 0 fold to less than 5 fold)” and “B (B represents an increase ranging from 5 fold to less than 10 fold)”.
The corresponding values for `O=C(c1ccncc1)N1CCc2c(c(-c3ncccn3)nn2Cc2ccccc2F)C1` [Compound I-55] are “A (A represents no increase or an increase ranging from more than 0 fold to less than 5 fold)” and “A (A represents no increase or an increase ranging from more than 0 fold to less than 5 fold)”.
The corresponding values for `CC(=O)N1CCc2c(c(-c3ncccn3)nn2Cc2ccccc2F)C1` [Compound I-52, 1-(1-(2-fluorobenzyl)-3-(pyrimidin-2-yl)-6,7-dihydro-1H-pyrazolo[4,3-c]pyridin-5(4H)-yl)ethanone] are “A (A represents no increase or an increase ranging from more than 0 fold to less than 5 fold)” and “A (A represents no increase or an increase ranging from more than 0 fold to less than 5 fold)”.
